Data from US20220363709A1, “ECTONU[…] METHODS OF USE THEREOF” (priority 2019, published 2022).
pIC50: −log10 of the molar value.

What follows are compounds tested against T1, recombinant CD73 (Homo sapiens, UniProt P21589) (assay: Assay 1: Inhibition of the CD73 Enzyme In Vitro). Conditions: soluble recombinant CD73 0.5 nM, AMP 50 μM, 30 minutes at room temperature, Malachite Green, absorbance at 630 nm; read-out: Assay 1 CD73 IC50.
T1 construct: purchased R&D Systems 5795-EN-010
T1 sequence (P21589 27-547 limits assumed): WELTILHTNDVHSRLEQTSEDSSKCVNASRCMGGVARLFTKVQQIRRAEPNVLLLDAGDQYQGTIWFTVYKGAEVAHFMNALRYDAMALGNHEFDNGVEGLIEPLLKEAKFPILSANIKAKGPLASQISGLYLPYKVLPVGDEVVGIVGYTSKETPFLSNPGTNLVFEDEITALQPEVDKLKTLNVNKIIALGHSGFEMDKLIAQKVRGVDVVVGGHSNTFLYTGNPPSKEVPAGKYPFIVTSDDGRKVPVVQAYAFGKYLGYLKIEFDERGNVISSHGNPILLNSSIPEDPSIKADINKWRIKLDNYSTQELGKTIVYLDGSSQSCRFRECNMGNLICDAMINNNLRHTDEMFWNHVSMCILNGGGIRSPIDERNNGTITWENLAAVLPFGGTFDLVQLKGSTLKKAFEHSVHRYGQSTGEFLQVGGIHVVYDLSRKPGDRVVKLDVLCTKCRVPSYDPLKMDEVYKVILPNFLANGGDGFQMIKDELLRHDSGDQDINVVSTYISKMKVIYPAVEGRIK
Assay type: biochemical
Protocol: Serial dilutions of test compounds were incubated with recombinant CD73 and AMP in reaction buffer (25 mM Tris HCl pH7.5, 5 mM MgCl2, 50 mM NaCl, 0.25 mM DTT, 0.005% Triton X-100). The final reaction volume was 25 μL and the final concentrations of recombinant CD73 and AMP were 0.5 nM and 50 μM, respectively. […] After 5 minutes at room temperature, absorbance at 630 nm was determined on a microplate spectrophotometer. The concentration of inorganic phosphate was determined using a phosphate standard curve.
ND indicates not determined.
Nc1nc(Cl)nc2c1ncn2[C@@H]1O[C@H](COC(Cc2ccc(-c3ccccc3)cc2)(C(=O)O)c2cscn2)[C@@H](O)[C@H]1O (mixture of isomers) [Example 1, 3-([1,1′-biphenyl]-4-yl)-2-(((2R,3S,4R,5R)-5-(6-amino-2-chloro-9H-purin-9-yl)-3,4-dihydroxytetrahydrofuran-2-yl)methoxy)-2-(thiazol-4-yl)propanoic acid] showed a pIC50 of 7.00.
In the case of N#Cc1ccccc1-c1ccc(CC(OC[C@H]2O[C@@H](n3cnc4c(N)nc(Cl)nc43)[C@@H](F)[C@@H]2O)(C(=O)O)c2cscn2)cc1 (mixture of isomers) [Example 12, 2-(((2R3R,4S,5R)-5-(6-amino-2-chloro-9H-purin-9-yl)-4-fluoro-3-hydroxytetrahydrofuran-2-yl)methoxy)-3-(2′-cyano-[1,1′-biphenyl]-4-yl)-2-(thiazol-4-yl)propanoic acid], the pIC50 was 6.36.
Nc1nc(Cl)nc2c1ncn2[C@@H]1O[C@H](COC(Cc2ccc(-c3ccccc3C(=O)O)cc2)(C(=O)O)c2cscn2)[C@@H](O)[C@@H]1F (mixture of isomers) [Example 13, 4′-(2-(((2R,3R,4S,5R)-5-(6-amino-2-chloro-9H-purin-9-yl)-4-fluoro-3-hydroxytetrahydrofuran-2-yl)methoxy)-2-carboxy-2-(thiazol-4-yl)ethyl)-[1,1′-biphenyl]-2-carboxylic acid] gave a pIC50 of 6.66.
Work on Nc1nc(Cl)nc2c1ncn2[C@@H]1O[C@H](COC(C(=O)O)c2cscn2)[C@@H](O)[C@@H]1F (mixture of isomers) [Example 14, 2-(((2R3R,4S,5R)-5-(6-amino-2-chloro-9H-purin-9-yl)-4-fluoro-3-hydroxytetrahydrofuran-2-yl)methoxy)-2-(thiazol-4-yl)acetic acid] yielded a pIC50 of 4.66.
Nc1nc(Cl)nc2c1ncn2[C@@H]1O[C@H](COC(Cc2cccc(C(=O)O)c2)(C(=O)O)c2cscn2)[C@@H](O)[C@@H]1F (mixture of isomers) [Example 17, 3-(2-(((2R,3R,4S,5R)-5-(6-amino-2-chloro-9H-purin-9-yl)-4-fluoro-3-hydroxytetrahydrofuran-2-yl)methoxy)-2-carboxy-2-(thiazol-4-yl)ethyl)benzoic acid] gave a pIC50 of 6.13.
Compound Nc1nc(Cl)nc2c1ncn2[C@@H]1O[C@H](COC(Cc2ccc(-c3ccccc3CC(=O)O)cc2)(C(=O)O)c2cscn2)[C@@H](O)[C@@H]1F (mixture of isomers) [Example 18, 2-(((2R3R,4S,5R)-5-(6-amino-2-chloro-9H-purin-9-yl)-4-fluoro-3-hydroxytetrahydrofuran-2-yl)methoxy)-3-(2′-(carboxymethyl)-[1,1′-biphenyl]-4-yl)-2-(thiazol-4-yl)propanoic acid] has a pIC50 of 6.74.
Work on CCCCOc1nc(Cl)nc2c1ncn2[C@@H]1O[C@H](COC(Cc2ccccc2)(C(=O)O)c2cscn2)[C@@H](O)[C@@H]1F (mixture of isomers) [Example 23, 2-(((2R,3R,4S,5R)-5-(6-butoxy-2-chloro-9H-purin-9-yl)-4-fluoro-3-hydroxytetrahydrofuran-2-yl)methoxy)-3-phenyl-2-(thiazol-4-yl)propanoic acid] yielded a pIC50 of 5.47.
Work on CCCNc1nc(Cl)nc2c1ncn2[C@@H]1O[C@H](COC(Cc2ccccc2)(C(=O)O)c2cscn2)[C@@H](O)[C@@H]1F (mixture of isomers) [Example 24, 2-(((2R,3R4S,5R)-5-(2-chloro-6-(propylamino)-9H-purin-9-yl)-4-fluoro-3-hydroxytetrahydrofuran-2-yl)methoxy)-3-phenyl-2-(thiazol-4-yl)propanoic acid] yielded a pIC50 of 5.91.
CCCNc1nc(Cl)nc2c1ncn2[C@@H]1O[C@H](COC(Cc2ccc(-c3ccccc3C(=O)O)cc2)(C(=O)O)c2cscn2)[C@@H](O)[C@@H]1F (mixture of isomers) [Example 25, 4′-(2-carboxy-2-(((2R,3R,4S,5R)-5-(2-chloro-6-(propylamino)-9H-purin-9-yl)-4-fluoro-3-hydroxytetrahydrofuran-2-yl)methoxy)-2-(thiazol-4-yl)ethyl)-[1,1′-biphenyl]-2-carboxylic acid] showed a pIC50 of 6.42.
